Common to all, as to test: Eurofins enzymatic radiometric kinase assay
Common to all, as to format: biochemical
Holding throughout (conditions): ATP at Km, duplicate

One test concerns the target T1, PAK5 (Homo sapiens, UniProt Q9P286).
T1 construct: purchased Eurofins (radiometric) / Eurofins DiscoverX scanMAX / Reaction Biology / SignalChem
As to the method:
(§1) The column labeled “# < 10 PoC in enzyme panel” in Table 1 reports the number of kinases in this 17-member panel inhibited > 90% by each analog.
(§2) Details about the substrate used, protein constructs, controls, and assay protocol for these kinase assays are available at the Eurofins website: https://www.eurofinsdiscoveryservices.com. Reaction Biology Corp. (RBC) radiometric HotSpot kinase assays were carried out at the Km value for ATP in dose–response (10-pt curve) format for MYLK4, RIPK5, and YSK4 in Table S2. Details about the substrate used, protein constructs, controls, and assay protocol for these kinase assays are available at the RBC website: https://www.reactionbiology.com/list-kinase-targets-us-facility. SignalChem developed an ADP-Glo assay to test for enzymatic inhibition of PIKfyve in dose–response (10-pt curve) format in duplicate.

For a further test, the target named is T2, TAOK3 (Homo sapiens, UniProt Q9H2K8).
T2 construct: purchased Eurofins (radiometric) / Eurofins DiscoverX scanMAX / Reaction Biology / SignalChem
T2 sequence (Q9H2K8 1-898): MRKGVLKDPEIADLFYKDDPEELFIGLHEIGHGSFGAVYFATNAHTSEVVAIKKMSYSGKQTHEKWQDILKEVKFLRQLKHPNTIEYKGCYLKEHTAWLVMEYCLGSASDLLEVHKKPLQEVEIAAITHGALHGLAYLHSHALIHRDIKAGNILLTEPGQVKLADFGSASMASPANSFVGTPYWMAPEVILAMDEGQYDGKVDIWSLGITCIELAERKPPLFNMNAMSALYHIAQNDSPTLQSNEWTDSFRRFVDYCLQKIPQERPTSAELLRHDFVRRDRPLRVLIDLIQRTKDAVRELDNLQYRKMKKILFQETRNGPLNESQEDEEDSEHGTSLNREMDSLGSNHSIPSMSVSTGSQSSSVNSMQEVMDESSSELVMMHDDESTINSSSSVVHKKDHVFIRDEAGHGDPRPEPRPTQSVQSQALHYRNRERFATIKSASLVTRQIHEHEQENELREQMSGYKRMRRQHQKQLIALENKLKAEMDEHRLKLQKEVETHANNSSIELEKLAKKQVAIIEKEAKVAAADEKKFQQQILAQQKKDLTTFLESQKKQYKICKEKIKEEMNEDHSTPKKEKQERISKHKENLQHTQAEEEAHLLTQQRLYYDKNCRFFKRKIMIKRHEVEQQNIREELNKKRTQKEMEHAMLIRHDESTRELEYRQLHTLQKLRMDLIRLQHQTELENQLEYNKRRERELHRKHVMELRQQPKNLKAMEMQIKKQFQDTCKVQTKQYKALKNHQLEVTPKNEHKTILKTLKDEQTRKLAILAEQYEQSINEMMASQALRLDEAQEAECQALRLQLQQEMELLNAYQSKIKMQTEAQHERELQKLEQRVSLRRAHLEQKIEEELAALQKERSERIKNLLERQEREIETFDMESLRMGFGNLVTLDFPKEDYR
As to the method: as §1, §2

The target in a further test is T3, TSSK2 (Homo sapiens, UniProt Q96PF2).
T3 construct: purchased Eurofins (radiometric) / Eurofins DiscoverX scanMAX / Reaction Biology / SignalChem
T3 sequence (Q96PF2 1-358): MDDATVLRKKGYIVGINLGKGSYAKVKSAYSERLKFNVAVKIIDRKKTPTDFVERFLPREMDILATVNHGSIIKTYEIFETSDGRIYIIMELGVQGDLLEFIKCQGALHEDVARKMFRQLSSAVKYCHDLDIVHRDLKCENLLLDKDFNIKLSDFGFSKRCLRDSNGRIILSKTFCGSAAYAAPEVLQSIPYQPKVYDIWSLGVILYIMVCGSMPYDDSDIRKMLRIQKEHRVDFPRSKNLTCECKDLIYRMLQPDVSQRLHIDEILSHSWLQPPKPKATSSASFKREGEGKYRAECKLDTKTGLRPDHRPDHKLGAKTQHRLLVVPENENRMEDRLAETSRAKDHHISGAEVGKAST
The procedure: as §1, §2

The target of the next test is T4, MAP4K5 (Homo sapiens, UniProt Q9Y4K4).
T4 construct: purchased Eurofins
As to the method:
as §1, §2

In another test the target is T5, MARK4 (Homo sapiens, UniProt Q96L34).
T5 construct: purchased Eurofins (radiometric) / Eurofins DiscoverX scanMAX / Reaction Biology / SignalChem
T5 sequence (Q96L34 1-752): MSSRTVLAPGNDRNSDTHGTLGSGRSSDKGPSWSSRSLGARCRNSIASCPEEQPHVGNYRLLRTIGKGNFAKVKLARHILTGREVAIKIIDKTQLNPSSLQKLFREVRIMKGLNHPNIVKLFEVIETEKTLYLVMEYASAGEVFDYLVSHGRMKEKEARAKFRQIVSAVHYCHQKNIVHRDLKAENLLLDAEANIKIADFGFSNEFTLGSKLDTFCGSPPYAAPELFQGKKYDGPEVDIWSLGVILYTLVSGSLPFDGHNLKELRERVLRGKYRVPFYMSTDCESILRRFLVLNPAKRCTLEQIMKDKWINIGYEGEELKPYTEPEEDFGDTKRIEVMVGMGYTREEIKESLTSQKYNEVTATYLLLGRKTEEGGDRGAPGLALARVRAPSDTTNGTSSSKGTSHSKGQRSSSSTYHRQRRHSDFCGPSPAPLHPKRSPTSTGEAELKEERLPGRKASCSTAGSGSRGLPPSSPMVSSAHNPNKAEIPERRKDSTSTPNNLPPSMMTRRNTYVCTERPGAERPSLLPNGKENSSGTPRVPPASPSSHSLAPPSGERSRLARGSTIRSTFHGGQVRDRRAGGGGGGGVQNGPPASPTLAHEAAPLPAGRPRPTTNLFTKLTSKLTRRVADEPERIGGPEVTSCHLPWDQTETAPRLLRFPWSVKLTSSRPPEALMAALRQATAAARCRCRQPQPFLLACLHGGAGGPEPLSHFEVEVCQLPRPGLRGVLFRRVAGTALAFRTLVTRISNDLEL
As to the method:
as §1, §2

The next test deals with T6, PAK6 (Homo sapiens, UniProt Q9NQU5).
T6 construct: purchased Eurofins (radiometric) / Eurofins DiscoverX scanMAX / Reaction Biology / SignalChem
The procedure:
as §1, §2

The next test addresses T7, MARK3 (Homo sapiens, UniProt P27448).
T7 construct: purchased Eurofins (radiometric) / Eurofins DiscoverX scanMAX / Reaction Biology / SignalChem
As to the method: as §1, §2

Molecules are shown by their SMILES.

T1 sequence (Q9P286 whole entry): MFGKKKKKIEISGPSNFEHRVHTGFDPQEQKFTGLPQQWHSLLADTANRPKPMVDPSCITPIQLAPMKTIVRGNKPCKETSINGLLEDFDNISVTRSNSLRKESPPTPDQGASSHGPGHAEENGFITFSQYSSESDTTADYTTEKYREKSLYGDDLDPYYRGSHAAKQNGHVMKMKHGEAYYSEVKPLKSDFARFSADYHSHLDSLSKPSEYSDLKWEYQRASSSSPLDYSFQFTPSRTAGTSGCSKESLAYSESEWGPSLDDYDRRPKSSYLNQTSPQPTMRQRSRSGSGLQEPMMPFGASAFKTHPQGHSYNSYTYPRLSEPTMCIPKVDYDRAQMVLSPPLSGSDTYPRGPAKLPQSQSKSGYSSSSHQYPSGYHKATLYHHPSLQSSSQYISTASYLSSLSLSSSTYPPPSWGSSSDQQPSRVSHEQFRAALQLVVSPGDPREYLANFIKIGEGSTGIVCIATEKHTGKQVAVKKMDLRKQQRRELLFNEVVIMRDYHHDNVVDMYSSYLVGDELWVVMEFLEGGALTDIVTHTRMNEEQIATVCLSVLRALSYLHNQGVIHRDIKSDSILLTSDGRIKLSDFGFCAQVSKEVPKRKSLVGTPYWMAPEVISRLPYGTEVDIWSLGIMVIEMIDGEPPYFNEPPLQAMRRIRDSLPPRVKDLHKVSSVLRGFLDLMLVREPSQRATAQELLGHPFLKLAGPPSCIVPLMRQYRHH
T4 sequence (Q9Y4K4 whole entry): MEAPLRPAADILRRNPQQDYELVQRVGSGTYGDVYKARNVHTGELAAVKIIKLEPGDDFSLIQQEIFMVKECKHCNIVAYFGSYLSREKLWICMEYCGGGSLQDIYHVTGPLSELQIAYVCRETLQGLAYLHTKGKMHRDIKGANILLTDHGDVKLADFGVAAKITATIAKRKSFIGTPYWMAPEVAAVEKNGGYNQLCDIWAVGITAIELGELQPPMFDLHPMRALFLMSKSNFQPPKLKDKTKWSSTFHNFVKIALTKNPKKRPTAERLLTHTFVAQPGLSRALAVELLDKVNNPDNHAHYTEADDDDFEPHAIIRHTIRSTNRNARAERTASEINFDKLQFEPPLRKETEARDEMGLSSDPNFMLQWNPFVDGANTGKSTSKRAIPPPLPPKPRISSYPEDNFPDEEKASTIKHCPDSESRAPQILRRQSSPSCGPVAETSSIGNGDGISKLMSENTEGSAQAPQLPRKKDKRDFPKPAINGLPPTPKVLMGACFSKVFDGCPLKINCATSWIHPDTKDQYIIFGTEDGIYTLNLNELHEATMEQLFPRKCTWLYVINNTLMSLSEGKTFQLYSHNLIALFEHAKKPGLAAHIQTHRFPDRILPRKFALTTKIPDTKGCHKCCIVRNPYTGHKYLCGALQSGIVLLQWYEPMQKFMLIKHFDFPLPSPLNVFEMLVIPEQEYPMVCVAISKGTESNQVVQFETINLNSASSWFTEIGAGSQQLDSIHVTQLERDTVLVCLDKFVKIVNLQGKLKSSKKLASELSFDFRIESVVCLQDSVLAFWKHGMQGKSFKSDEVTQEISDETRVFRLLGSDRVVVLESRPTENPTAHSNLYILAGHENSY
T7 sequence (P27448 whole entry): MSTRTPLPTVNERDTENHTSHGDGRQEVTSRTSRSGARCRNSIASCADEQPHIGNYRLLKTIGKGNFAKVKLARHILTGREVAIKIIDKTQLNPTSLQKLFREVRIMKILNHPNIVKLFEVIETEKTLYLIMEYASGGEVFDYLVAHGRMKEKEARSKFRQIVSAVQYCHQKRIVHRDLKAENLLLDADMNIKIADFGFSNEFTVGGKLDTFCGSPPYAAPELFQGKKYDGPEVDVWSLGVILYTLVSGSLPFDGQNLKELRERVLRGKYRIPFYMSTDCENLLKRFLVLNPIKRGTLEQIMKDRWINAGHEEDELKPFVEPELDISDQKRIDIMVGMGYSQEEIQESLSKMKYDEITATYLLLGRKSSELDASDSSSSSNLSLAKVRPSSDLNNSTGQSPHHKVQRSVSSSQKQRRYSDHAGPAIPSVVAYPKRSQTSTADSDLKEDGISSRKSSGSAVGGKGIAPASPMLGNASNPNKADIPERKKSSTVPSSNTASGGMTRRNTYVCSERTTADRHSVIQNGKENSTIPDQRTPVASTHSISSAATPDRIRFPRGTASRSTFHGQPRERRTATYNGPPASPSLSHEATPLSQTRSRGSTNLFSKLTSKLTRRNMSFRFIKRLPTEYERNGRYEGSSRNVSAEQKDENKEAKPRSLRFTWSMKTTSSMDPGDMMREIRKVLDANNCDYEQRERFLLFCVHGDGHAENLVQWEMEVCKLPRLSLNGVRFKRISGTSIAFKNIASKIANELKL
T6 sequence (Q9NQU5 whole entry): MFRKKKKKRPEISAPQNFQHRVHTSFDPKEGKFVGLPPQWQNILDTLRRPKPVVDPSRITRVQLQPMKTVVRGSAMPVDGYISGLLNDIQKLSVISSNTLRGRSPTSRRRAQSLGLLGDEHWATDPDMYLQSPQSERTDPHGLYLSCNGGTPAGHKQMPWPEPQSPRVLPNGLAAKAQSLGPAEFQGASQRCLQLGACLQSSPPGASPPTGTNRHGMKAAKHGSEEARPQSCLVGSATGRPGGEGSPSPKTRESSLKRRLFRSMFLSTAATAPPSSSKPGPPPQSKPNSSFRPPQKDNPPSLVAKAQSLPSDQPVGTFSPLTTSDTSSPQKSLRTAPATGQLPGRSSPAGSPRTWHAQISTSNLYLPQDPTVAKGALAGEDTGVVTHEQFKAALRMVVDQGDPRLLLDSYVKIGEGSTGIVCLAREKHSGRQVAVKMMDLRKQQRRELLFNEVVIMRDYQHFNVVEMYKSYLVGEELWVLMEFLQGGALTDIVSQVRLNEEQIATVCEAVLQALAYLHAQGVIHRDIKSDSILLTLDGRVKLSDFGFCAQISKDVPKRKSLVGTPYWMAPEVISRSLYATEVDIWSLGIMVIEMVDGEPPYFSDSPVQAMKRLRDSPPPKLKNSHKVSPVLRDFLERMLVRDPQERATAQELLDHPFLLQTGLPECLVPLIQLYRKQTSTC

With `CC(C)(O)C#Cc1ccc2[nH]c3c(c2c1)-c1nc(N)ncc1CCC3` [AMG28, reference compound], the “PAK5 PoC at 1 μM” value at PAK5 turned out to be 3 PoC. In addition, the “TAOK3 PoC at 1 μM” value at TAOK3 amounted to 9 PoC. The “TSSK2 PoC at 1 μM” value on TSSK2 came out at 57 PoC. Further, the “MAP4K5 PoC at 1 μM” value at MAP4K5 came out at 1 PoC. Further, the “MARK4 PoC at 1 μM” value at MARK4 is 18 PoC. Also, the “PAK6 PoC at 1 μM” value at PAK6 is 6 PoC. In addition, the “MARK3 PoC at 1 μM” value on MARK3 is on record as 12 PoC.

For the compound `CC(C)(O)C#Cc1ccc2[nH]c3c(c2c1)-c1nc(N)ncc1CC3` [Compound 1], on PAK5, the “PAK5 PoC at 1 μM” value is given as 48 PoC. In addition, on TAOK3, the “TAOK3 PoC at 1 μM” value was found to be 11 PoC. The “TSSK2 PoC at 1 μM” value on TSSK2 is recorded as 88 PoC. For the same compound, at MAP4K5, the “MAP4K5 PoC at 1 μM” value came to 3 PoC. Moreover, the “MARK4 PoC at 1 μM” value on MARK4 is on record as 53 PoC. Also, on PAK6, the “PAK6 PoC at 1 μM” value amounted to 51 PoC. The “MARK3 PoC at 1 μM” value on MARK3 is on record as 56 PoC.

In the case of `CC(C)(O)C#Cc1ccc2[nH]c3c(c2c1)-c1nc(N)ncc1CCCC3` [Compound 2], the “PAK5 PoC at 1 μM” value on PAK5 is on record as 87 PoC. Besides, the “TAOK3 PoC at 1 μM” value on TAOK3 is 78 PoC. The “TSSK2 PoC at 1 μM” value on TSSK2 worked out at 76 PoC. Also, at MAP4K5, the “MAP4K5 PoC at 1 μM” value amounted to 9 PoC. At MARK4, the “MARK4 PoC at 1 μM” value was 86 PoC. For the same compound, at PAK6, the “PAK6 PoC at 1 μM” value is on record as 77 PoC. For the same compound, the “MARK3 PoC at 1 μM” value on MARK3 came to 76 PoC.

For `CC(C)(O)C#Cc1ccc2[nH]cc(-c3ccnc(N)n3)c2c1` [Compound 3], the “PAK5 PoC at 1 μM” value on PAK5 came out at 31 PoC. For the same compound, the “TAOK3 PoC at 1 μM” value on TAOK3 was found to be 20 PoC. In addition, the “TSSK2 PoC at 1 μM” value on TSSK2 was found to be 78 PoC. Moreover, the “MAP4K5 PoC at 1 μM” value on MAP4K5 was 1 PoC. Also, the “MARK4 PoC at 1 μM” value on MARK4 is reported as 43 PoC. The “PAK6 PoC at 1 μM” value at PAK6 stood at 40 PoC. Further, at MARK3, the “MARK3 PoC at 1 μM” value came out at 46 PoC.

For the compound `COC(C)(C)C#Cc1ccc2[nH]c3c(c2c1)-c1nc(N)ncc1CCC3` [Compound 11], the “PAK5 PoC at 1 μM” value on PAK5 stood at 88 PoC. The “TAOK3 PoC at 1 μM” value at TAOK3 worked out at 89 PoC. At TSSK2, the “TSSK2 PoC at 1 μM” value is listed as 86 PoC. Moreover, the “MAP4K5 PoC at 1 μM” value at MAP4K5 is 9 PoC. For the same compound, the “MARK4 PoC at 1 μM” value at MARK4 was 103 PoC. The “PAK6 PoC at 1 μM” value at PAK6 was 92 PoC. Further, the “MARK3 PoC at 1 μM” value at MARK3 amounted to 104 PoC.

(Values after PMC10104807, “Modulation of tau tubulin kinases (TTBK1 and TTBK2) impacts ciliogenesis” (Scientific Reports, 2023).)
